Test results taken from patent US20070244169A1, “GLUCOKINASE ACTIVATORS” (priority 2005, published 2007).
pEC50: −log10 of the molar value.

The compounds below were run against T1, GST-hLGK1 (GK) (Homo sapiens, UniProt P35557) (assay: GK activation assay with GST-hLGK1 and Mant-ATP, capillary electrophoresis readout). Conditions: GST-hLGK1 6 μg/mL, 50 μM Mant-ATP, 25 mM D-glucose solution (10 μL) added, 37° C. for 60 min; concentration for 50% of the maximum activity value; read-out: EC50 of Exemplified Compounds against GK.
T1 construct: GST (N); made in house
T1 sequence (P35557 1-464 isoform P35557-3): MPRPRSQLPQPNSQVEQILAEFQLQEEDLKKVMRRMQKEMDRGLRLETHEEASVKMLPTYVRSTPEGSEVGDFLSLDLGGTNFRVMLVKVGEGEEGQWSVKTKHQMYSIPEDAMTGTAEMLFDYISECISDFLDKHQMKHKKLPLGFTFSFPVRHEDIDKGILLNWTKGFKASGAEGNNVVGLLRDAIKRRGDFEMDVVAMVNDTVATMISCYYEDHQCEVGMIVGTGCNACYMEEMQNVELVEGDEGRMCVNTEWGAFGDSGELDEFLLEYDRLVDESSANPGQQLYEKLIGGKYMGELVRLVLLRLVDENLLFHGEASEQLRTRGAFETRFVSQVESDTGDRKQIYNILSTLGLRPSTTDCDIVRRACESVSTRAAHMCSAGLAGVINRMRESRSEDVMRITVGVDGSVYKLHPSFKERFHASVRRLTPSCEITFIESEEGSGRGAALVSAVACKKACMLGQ
Type: biochemical
Description: A 50% solution (5 μL) of the test compound in dimethyl sulfoxide was added to each well of a 384 well black plate (Nalge Nunc). Then, 35 μL of a liquid obtained by diluting GST-hLGK1 obtained in Reference Example 2A with a measurement buffer (50 mM HEPES (pH 7.4), containing 200 mM KCl, 5 mM MgCl2, 2.5 mM DTT and 50 μM 2′-(or-3′)—O—(N-methylanthraniloyl)adenosine 5′-triphosphate (Mant-ATP) (Jena Bioscience)) was added to each well to 6 μg/mL. Each well was maintained at 37° C. for 10 min, and a 25 mM D-glucose solution (10 μL) was added to start the reaction. After the start of the reaction, each well was allowed to stand at 37° C. for 60 min, before quenching the reaction by adding 25 μL of a reaction quenching solution (200 mM HEPES (pH 7.4), containing 20 mM MgCl2, 200 mM EDTA, 0.03% Triton-X 100, 0.3% Coating 3 reagent (Caliper Life Sciences)).
Mant-ATP (substrate) and Mant-ADP (reaction resultant product) were separated from each well after quenching the reaction, with a microchip type capillary electrophoresis apparatus 250HTS (Caliper Life Sciences). The reaction rate [(peak height of reaction resultant product)/(peak height of reaction resultant product+peak height of substrate)×100(%)] was calculated from the ratio of the substrate peak height and the reaction resultant product peak height, which were obtained by fluorescence detection (excitation wavelength 355 nm, measurement wavelength 460 nm), and used as an index of the GK activity.
For the control, the reaction rate was calculated in the same manner as above, except that a “50% dimethyl sulfoxide solution” was used instead of the “50% solution of the test compound in dimethyl sulfoxide”.
A percentage obtained by dividing the reaction rate of the well with the test compound (test compound addition group) by the reaction rate of the well with a 50% dimethyl sulfoxide solution alone (control group) was taken as the GK activation value by the test compound, and the concentration of the test compound necessary for the activation of 50% of the maximum activity value determined as an EC50 value.

pEC50 | Compound
5.62 | COCC(C)Oc1ccc2[nH]nc(Nc3nccs3)c2c1 (stereo not drawn) [Compound 35, 5-(2-Methoxy-1-methylethoxy)-N-1,3-thiazol-2-yl-1H-indazol-3-amine]
5.54 | CC(C)c1ccc2[nH]nc(Nc3nccs3)c2c1 [Compound 33, 5-Isopropyl-N-1,3-thiazol-2-yl-1H-indazol-3-amine]
5.60 | Cn1nc(Nc2nccs2)c2cc(C(F)(F)F)ccc21 [Compound 9, 1-Methyl-N-1,3-thiazol-2-yl-5-(trifluoromethyl)-1H-indazol-3-amine]
5.30 | Brc1ccc2[nH]nc(Nc3nccs3)c2c1 [Compound 7, 5-Bromo-N-1,3-thiazol-2-yl-1H-indazol-3-amine]
5.07 | CC(=O)c1ccc2[nH]nc(Nc3nccs3)c2c1 [Compound 25, 1-[3-(1,3-Thiazol-2-ylamino)-1H-indazol-5-yl]ethanone]
4.82 | CC(=O)Nc1ccc2[nH]nc(Nc3nccs3)c2c1 [Compound 22, N-[3-(1,3-Thiazol-2-ylamino)-1H-indazol-5-yl]acetamide]
5.77 | CC(C)Oc1ccc2[nH]nc(Nc3nccs3)c2c1 [Compound 34, 5-Isopropoxy-N-1,3-thiazol-2-yl-1H-indazol-3-amine]
5.92 | CC(C)Cc1ccc2[nH]nc(Nc3nccs3)c2c1 [Compound 29, 5-Isobutyl-N-1,3-thiazol-2-yl-1H-indazol-3-amine]
5.18 | O=[N+]([O-])c1ccc2[nH]nc(Nc3nccs3)c2c1 [Compound 20, 5-Nitro-N-1,3-thiazol-2-yl-1H-indazol-3-amine]
